Assay results: patent publication US5134137A, “Cephalosporin antibiotics” (The Upjohn Company, priority 1990, dated 1992)
Converted amounts (≈) assume the structure as drawn. Where two headings read alike, the source gives them in different places.

Columns and labels:
Type in all cases: cell-based
[1] = system: Salmonella choleraesuis; assay: MIC, agar dilution, Salmonella choleraesuis; details: Salmonella enterica, read-out: MIC
Description: (§1) Stock solution of each test antibiotic compound were prepared to have a concentration of 2 mg. of the test compound per milliliter in sterile water of 0.1M ammonium acetate solution. The amount of each compound used was adjusted for base compound activity as calculated from the purity data for the selected batch of compound.
(§2) The dilution procedure described by Washington and Sutter [Manual of Clinical Microbiology, 3rd, Edit. (Lennett, E. H. et al, Eds.), pp. 453-458 (1980), American Society for Microbiology, Washington, D.C.] was modified so that serial concentrations of 128 to 0.0625 microgram/ml. in sterile water was obtained. Then 1.5 ml. aliquots of these test antibiotic dilution mixtures are added to 13.5 molten (50° C.) Mueller-Hinton agar. Each resulting mixture is poured into 15×100 mm, sterile Petri plates and allowed to dry at room temperature overnight.
(§3) Test bacterial cultures are maintained at -70° C. on glass beads. [See R. J. Yancey, Jr. et al, Amer. Jr. of Vet. Research, 48, No. 7, pp. 1050-1053, (1987)]. At least one bacteria-laden bead per culture is dropped into one ml. of brain heart infusion (BHI) broth for overnight culture at 37° C. in 5% V/V carbon dioxide in air atmosphere.
(§4) On the data of assay, 2 to 8 drops of the bacterial broth cultures are transferred to fresh BHI broth (1 ml.) and the mixture is incubated for 4 to 6 hours at 37° C. in a 5% V/V carbon dioxide in air atmosphere. The resulting cultures are then diluted to match a 0.5 MacFarland standard and further diluted 1:20 V/V with sterile saline solution.
(§5) A 0.001 ml. drop of the resulting mixture, containing approximately 10^3 to 10^4 colony forming units (CFU) of each test bacteria organism, is dispensed onto the surface of the test antibiotic compound test plates with a Steer's type replicator. The resulting innoculated plates are incubated 16 to 18 hours at 37° C. with a carbon dioxide atmosphere.
(§6) Stock solutions of each test antibiotic compound were prepared to have a concentration of 2 mg. of the test compound per milliliter in sterile water of 0.1M ammonium acetate solution. The amount of each compound used was adjusted for base compound activity as calculated from the purity data for the selected batch of compound.
(§7) The dilution procedure described by Washington and Sutter [Manual of Clinical Microbiology, 3rd, Edit. (Lennett, E. H. et al, Eds.), pp. 453-458 (1980), American Society for Microbiology, Washington, D.C.] was modified so that serial concentrations of 128 to 0.0625 microgram/ml. in sterile water was obtained. Then 1.5 ml. aliquots of these test antibiotic dilution mixtures are added to 13.5 molten (50° C.) Mueller-Hinton agar. Each resulting mixture is poured into 15×100 mm. sterile Petri plates and allowed to dry at room temperature overnight.
(§8) The dilution procedure described by Washington and Sutter [Manual of Clinical Microbiology, 3rd, Edit. (Lennett, E. H. et al, Eds.), pp. 453-458 (1980), American Society for Microbiology. Washington, D.C.] was modified so that serial concentrations of 128 to 0.0625 microgram/ml. in sterile water was obtained. Then 1.5 ml. aliquots of these test antibiotic dilution mixtures are added to 13.5 molten (50° C.) Mueller-Hinton agar. Each resulting mixture is poured into 15×100 mm. sterile Petri plates and allowed to dry at room temperature overnight.
(§9) Test bacterial culture are maintained at -70° C. on glass beads. [See R. J. Yancey, Jr. et al, Amer. Jr. of Vet. Research, 48, No. 7, pp. 1050-1053, (1987)]. At least one bacteria-laden bead per culture is dropped into one ml. of brain heart infusion (BHI) broth for overnight culture at 37° C. in 5% V/V carbon dioxide in air atmosphere.
(§10) On the day of assay, 2 to 8 drops of the bacterial broth cultures are transferred to fresh BHI broth (1 ml.) and the mixture is incubated for 4 to 6 hours at 37° C. in a 5% V/V carbon dioxide in air atmosphere. […]

[2] = system: Enterococcus faecium; assay: MIC, agar dilution, Enterococcus faecium; details: Enterococcus faecium; strain UC241; read-out: MIC
Description: as §6, §2, §3, §4, §5, §1, §7, §8, §9, §10

[3] = system: Bordetella bronchiseptica; assay: MIC, agar dilution, Bordetella bronchiseptica; details: Bordetella bronchiseptica; strain UC6313; read-out: MIC
Description: as §1, §2, §3, §4, §5, §6, §7, §8, §9, §10

[4] = system: Streptococcus uberis; assay: MIC, agar dilution, Streptococcus uberis; details: Streptococcus uberis, read-out: MIC
Description: as §1, §2, §3, §4, §5, §6, §7, §8, §9, §10

[5] = system: Pseudomonas aeruginosa; assay: MIC, agar dilution, Pseudomonas aeruginosa; details: Pseudomonas aeruginosa, ATCC27853; strain ATCC 27853; read-out: MIC
Description: as §1, §2, §3, §4, §5, §6, §7, §8, §9, §10

[6] = system: Micrococcus luteus; assay: MIC, agar dilution, Micrococcus luteus; details: Micrococcus luteus; strain UC130; read-out: MIC
Description: as §1, §2, §3, §4, §5, §6, §7, §8, §9, §10

[7] = system: Salmonella typhimurium; assay: MIC, agar dilution, Salmonella typhimurium; details: Salmonella enterica, read-out: MIC
Description: as §1, §2, §3, §4, §5, §6, §7, §8, §9, §10

[8] = system: Streptococcus agalactiae; assay: MIC, agar dilution, Streptococcus agalactiae; details: Streptococcus agalactiae, read-out: MIC
Description: as §1, §2, §3, §4, §5, §6, §7, §8, §9, §10

[9] = system: Escherichia coli; assay: MIC, agar dilution, Escherichia coli; details: Escherichia coli, read-out: MIC
Description: as §1, §2, §3, §4, §5, §6, §7, §8, §9, §10

[10] = system: Pasteurella multocida; assay: MIC, agar dilution, Pasteurella multocida; details: Pasteurella multocida; strain UC9581; read-out: MIC
Description: as §1, §2, §3, §4, §5, §6, §7, §8, §9, §10

[11] = system: Streptococcus suis; assay: MIC, agar dilution, Streptococcus suis; details: Streptococcus suis; strain 650-2; read-out: MIC
Description: as §1, §2, §3, §4, §5, §6, §7, §8, §9, §10

[12] = system: Enterococcus faecalis; assay: MIC, agar dilution, Enterococcus faecalis; details: Enterococcus faecalis; strain UC694; read-out: MIC
Description: as §6, §2, §3, §4, §5, §1, §7, §8, §9, §10

[13] = system: Streptococcus dysgalactiae; assay: MIC, agar dilution, Streptococcus dysgalactiae; details: Streptococcus dysgalactiae; strain UC251; read-out: MIC
Description: as §1, §2, §3, §4, §5, §6, §7, §8, §9, §10

[14] = system: Pasteurella hemolytica; assay: MIC (minimum inhibitory concentration), agar dilution, Pasteurella hemolytica; details: Pasteurella, read-out: MIC
Description: as §1, §2, §3, §4, §5, §6, §7, §8, §9, §10

[15] = system: Corynebacterium pyogenes; assay: MIC, agar dilution, Corynebacterium pyogenes; details: strain 213-2; read-out: MIC
Description: as §1, §2, §3, §4, §5, §6, §7, §8, §9, §10

[16] = system: Streptococcus bovis; assay: MIC, agar dilution, Streptococcus bovis; details: Streptococcus equinus; strain UC6281; read-out: MIC
Description: as §1, §2, §3, §4, §5, §6, §7, §8, §9, §10

[17] = system: Staphylococcus aureus; assay: MIC, agar dilution, Staphylococcus aureus; details: Staphylococcus aureus, read-out: MIC
Description: as §1, §2, §3, §4, §5, §6, §7, §8, §9, §10

[18] = CHOLERAESUIS / UC6073, strain UC6073
[19] = CHOLERAESUIS / UC6077, strain UC6077
[20] = TYPHIMURIUM / UC6162, strain UC6162
[21] = TYPHIMURIUM / UC6164, strain UC6164

| SMILES | MIC [1, 18] | MIC [1, 19] | MIC [2] | MIC [3] | MIC ([4]; strain UC3946) | MIC ([4]; strain UC6159) | MIC [5] | MIC [6] | MIC [7, 20] | MIC [7, 21] | MIC ([8]; strain UC3947) | MIC ([8]; strain UC6892) | MIC ([9]; strain UC3784) | MIC ([9]; strain UC6720) | MIC ([9]; strain UC9670) | MIC [10] | MIC [11] | MIC [12] | MIC [13] | MIC ([14]; strain UC6531) | also measured |
| --- | --- | --- | --- | --- | --- | --- | --- | --- | --- | --- | --- | --- | --- | --- | --- | --- | --- | --- | --- | --- | --- |
| CCC(C)SSCC1=C(C(=O)O)N2C(=O)[C@@H](NC(=O)/C(=N\OC)c3csc(N)n3)[C@H]2SC1 (stereo partly drawn) [Example 13] | 32 µg/mL (≈ 61.8 µM) | > 32 µg/mL | > 32 µg/mL | > 32 µg/mL | 0.13 µg/mL (≈ 0.251 µM) | 8 µg/mL (≈ 15.5 µM) | > 32 µg/mL | 0.13 µg/mL (≈ 0.251 µM) | 16 µg/mL (≈ 30.9 µM) | 16 µg/mL (≈ 30.9 µM) | 2 µg/mL (≈ 3.86 µM) | > 32 µg/mL | 8 µg/mL (≈ 15.5 µM) | 16 µg/mL (≈ 30.9 µM) | 8 µg/mL (≈ 15.5 µM) | 8 µg/mL (≈ 15.5 µM) | ≤ 0.06 µg/mL | > 32 µg/mL | ≤ 0.06 µg/mL | 1 µg/mL (≈ 1.93 µM) | MIC ([14]; strain UC6532): 0.13 µg/mL (≈ 0.251 µM); MIC ([14]; strain UC9582): 0.25 µg/mL (≈ 0.483 µM); MIC [15]: 32 µg/mL (≈ 61.8 µM); MIC [16]: > 32 µg/mL; MIC ([17]; strain UC6093): 4 µg/mL (≈ 7.73 µM); MIC ([17]; strain UC6097): 2 µg/mL (≈ 3.86 µM); MIC ([17]; strain UC9203): 2 µg/mL (≈ 3.86 µM) |
| CO/N=C(\C(=O)N[C@@H]1C(=O)N2C(C(=O)O)=C(CSSc3ccccc3)CS[C@H]12)c1csc(N)n1 [Example 15] | 32 µg/mL (≈ 59.5 µM) | 32 µg/mL (≈ 59.5 µM) | > 32 µg/mL | > 32 µg/mL | ≤ 0.06 µg/mL | 16 µg/mL (≈ 29.8 µM) | > 32 µg/mL | ≤ 0.06 µg/mL | 16 µg/mL (≈ 29.8 µM) | 8 µg/mL (≈ 14.9 µM) | ≤ 0.06 µg/mL | ≤ 0.06 µg/mL | 8 µg/mL (≈ 14.9 µM) | 8 µg/mL (≈ 14.9 µM) | 8 µg/mL (≈ 14.9 µM) | ≤ 0.06 µg/mL | ≤ 0.06 µg/mL | > 32 µg/mL | ≤ 0.06 µg/mL | 0.13 µg/mL (≈ 0.242 µM) | MIC ([14]; strain UC6532): 0.25 µg/mL (≈ 0.465 µM); MIC ([14]; strain UC9582): 0.25 µg/mL (≈ 0.465 µM); MIC [15]: 4 µg/mL (≈ 7.44 µM); MIC [16]: ≤ 0.06 µg/mL; MIC ([17]; strain UC6093): 2 µg/mL (≈ 3.72 µM); MIC ([17]; strain UC6097): 2 µg/mL (≈ 3.72 µM); MIC ([17]; strain UC9203): 2 µg/mL (≈ 3.72 µM) |
